Here are results for five compounds from patent US9456971B2, “Moisturizer and cosmetic agent containing same” (AJINOMOTO CO., INC., priority 2012, dated 2016).

Common to all, as to assay type: physicochemical
Series [1] can be described thus: Stability against decomposition (acceleration test, HPLC). The conditions noted are these: 30.0 wt % in water, 70° C. for 22 days. The protocol:
Solutions of the compound of Synthetic Example 2 (decanoyl proline Na, 30.0 wt %) in water with or without addition of etidronate to 0.1 wt % were prepared, and they were subjected to an acceleration test at 70° C. for 22 days. The decomposition rate of the compound of Synthetic Example 2 in each composition was measured using HPLC (20A manufactured by Shimadzu Corporation).

Series [2] is described as follows: Evaluation of moisturizer: water retention ability. The conditions noted are these: R(%)=[3]/[2]×100; after moisture absorption, dried at 35% RH, 25° C. for 14 days. The protocol:
(§1) To study the hygroscopicity and water retention ability of moisturizers, the following experiment was performed.
Decanoyl proline sodium obtained in Synthetic Example 2, betaine (“aminocoat” manufactured by Asahi Kasei Corporation), sodium lactate (manufactured by Wako), sodium pyrrolidonecarboxylate (“AJIDEW” NL-50 manufactured by Ajinomoto Co., Inc.), glycerol (“concentrated glycerin” manufactured by Kao Corporation), and sorbitol (manufactured by Kao Corporation) were each dried under vacuum. The moisture level of the samples was measured by Karl Fischer moisture meter, the amount of water was determined, and the weight other than the moisture level was calculated ([1]). Thereafter, the samples were allowed to absorb moisture under the conditions of 65% RH, 25° C. for 14 days, and the weight was measured ([2]). Thereafter, the samples were dried under the conditions of 35% RH, 25° C. for 14 days, and the weight was measured ([3]). […]

Series [3] can be described thus: Evaluation of moisturizer: hygroscopicity. The conditions noted are these: A(%)=([2]−[1])/[1]×100; vacuum-dried sample allowed to absorb moisture at 65% RH, 25° C. for 14 days. The protocol: as §1
Decanoyl proline sodium obtained in Synthetic Example 2, betaine (“aminocoat” manufactured by Asahi Kasei Corporation), sodium lactate (manufactured by Wako), sodium pyrrolidonecarboxylate (“AJIDEW” NL-50 manufactured by Ajinomoto Co., Inc.), glycerol (“concentrated glycerin” manufactured by Kao Corporation), and sorbitol (manufactured by Kao Corporation) were each dried under vacuum. The moisture level of the samples was measured by Karl Fischer moisture meter, the amount of water was determined, and the weight other than the moisture level was calculated ([1]). Thereafter, the samples were allowed to absorb moisture under the conditions of 65% RH, 25° C. for 14 days, and the weight was measured ([2]). Thereafter, the samples were dried under the conditions of 35% RH, 25° C. for 14 days, and the weight was measured ([3]).
• A(%)=([2]−[1])/[1]×100 was calculated and the samples were evaluated according to the following criteria. • ⊙: value of A is not less than 15% • ◯: value of A is not less than 12% and less than 15% • Δ: value of A is not less than 10% and less than 12% • ×: value of A is less than 10% [Water Retention Ability] • R(%)=[3]/[2]×100 was calculated and the samples were evaluated according to the following criteria. • ⊙: value of R is not less than 80% • ◯: value of R is not less than 60% and less than 80% • Δ: value of R is not less than 40% and less than 60% • ×: value of R is less than 40%

With `CCCCCCCCCC(=O)N1CCC[C@H]1C(=O)[O-].[Na+]` [Example 1, decanoyl proline sodium salt], the “decomposition rate of decanoyl proline Na” value in series [1] (etidronate added to 0.1 wt %) is given as 0.8%; in series [1] (etidronate not added) it was 2.4%. Further, the water retention ability result in series [2] was “⊙ (value of R is not less than 80%)”. Further, the hygroscopicity result in series [3] is recorded as “⊙ (value of A is not less than 15%)”.

For `C[N+](C)(C)CC(=O)O` [compound 1, betaine], in series [2], the water retention ability entry was “Δ (value of R is not less than 40% and less than 60%)”. Besides, the hygroscopicity result in series [3] is “⊙ (value of A is not less than 15%)”. For `CC(O)C(=O)[O-].[Na+]` (stereo not drawn) [compound 2, sodium lactate], the hygroscopicity result in series [3] is “⊙ (value of A is not less than 15%)”. Still for that read-out and setting: in the case of `O=C1CCC(C(=O)[O-])N1.[Na+]` (stereo not drawn) [compound 3, sodium pyrrolidonecarboxylate] it was “⊙ (value of A is not less than 15%)”; in that of `OCC(O)CO` [compound 4, glycerol], “⊙ (value of A is not less than 15%)”.
